Measurements reported in patent US8933017B2, “CD44V6 peptides as inhibitors of bacterial infections” (Karlsruher Institut fur Technologie, priority 2009, dated 2015).

Columns and labels:
Erk [1] = assay: InIB-induced Erk phosphorylation in ASs6 cells; type: cell-based, rat; conditions: peptide 100 ng/ml before InIB
Procedure: (§1) AS cells or ASs6 cells were induced with InIB as indicated (A) and ASs6 cells in addition with a CD44v6 14-mer peptide having SEQ ID NO: 1 or an unrelated (control) peptide (B). Erk phosphorylation (A,B) or c-Met phosphorylation (B) was determined. In (C), HeLa cells were induced either with HGF or InIB for 5 min at 37° C. CD44v6 was immunoprecipitated from the lysates and a Western Blot was performed using CD44v6 and c-Met antibodies as indicated. For control, an IgG antibody was used. The numbers reflect-fold induction as determined by densitometric scanning (Image J program).
(§2) The human colon adenocarcinoma cell lines HT29 and the human cervix carcinoma cell line HeLa (American tissue culture collection, ATCC; Wesel, Germany. Accession no: CCL-2) were grown in Dulbecco's modified Eagle's medium (DMEM; Invitrogen, Karlsruhe, Germany) supplemented with 10% fetal calf serum (FCS; PAA Cölbe, Germany). The rat pancreatic carcinoma cell line BSp73AS and its transfectant BSp73ASs6 were grown in RMPI (Invitrogen, Karlsruhe, Germany) plus 10% FCS.
(§3) In all experiments cells were induced with 1 nM of InIB where indicated. Induction was performed for 5 min at 37° C. Blocking experiments were performed by incubating the CD44v6 14-mer peptide having for example SEQ ID NO: 2 or SEQ ID NO: 1 (100 ng/ml) or the control peptide (100 ng/ml) for 30 min at 37° C. prior to induction with InIB. […]

c-Met [2] = assay: InIB-induced c-Met phosphorylation in ASs6 cells; type: cell-based, rat; conditions: peptide 100 ng/ml before InIB
Procedure: as §1, §2, §3

c-Met [3] = assay: InIB-induced c-Met phosphorylation in HeLa and HT29 cells; type: cell-based, human; conditions: peptide 100 ng/ml 30 min before InIB 1 nM 5 min
Procedure: (§4) HeLa cells were induced with InIB (A) at a concentration of 1 nM for 5 min at 37° C. Pretreatment with a control peptide or a CD44v6 14-mer peptide having SEQ ID NO: 2 at a concentration of 100 ng/ml for 30 min was performed when indicated. Phosphorylation of c-Met and of Erk were measured as described in experimental procedures. The same experiments were performed with the HT29 cells (B). (C) HeLa cells were transfected with two different siRNA (v6-1 and v6-2, described in experimental procedures) to downregulate CD44v6 and with a control siRNA. 48 h after transfection, cells were starved for additional 24 h. InIB-induced c-Met and Erk phosphorylation were measured. The expression of CD44v6 was detected by Western Blot analysis. The numbers reflect-fold induction as determined by densitometric scanning (Image J program).
as §2
(§5) In all experiments cells were induced with 1 nM of InIB where indicated. […]

HeLa cells = assay: Latex bead invasion assay (InIB-coated beads); type: cell-based, human; conditions: HeLa cells preincubated with peptide
Procedure: Control beads or beads coated with InIB (see experimental procedures) were incubated with HeLa cells. Cells were pretreated with a CD44v6 peptide having SEQ ID NO: 2 or a control peptide for one hour as indicated. Extracellular beads bind to a Cy3-labelled antibody and are stained red in immunofluorescence microscopy. In phase contrast microscopy both extracellular and intracellular beads are detected. The number of internalized beads (black) was counted in approximately a thousand cells and shown as intracellular beads/100 cells in the graph. The results are expressed as means±standard deviation of three independent experiments.
In1B-dependent c-Met and Erk phosphorylation was measured in HeLa cells transiently transfected with a control vector or a vector coding for a truncated version of ezrin deprived of the actin binding domain (ezΔABD or DN Ezrin). In these cells also the uptake of latex beads was determined as described in FIG. 4.
Coating of the beads with InIB was performed as is known in the art. Briefly, 25 μl of latex beads (4×10^8 beads/ml, Dynabeads M-450, Dynal, Invitrogen, Karlsruhe, Germany) were coated with goat anti-mouse IgG and then incubated with 0.5 ml of hybridoma cell supernatant of monoclonal anti-InIB antibody for 2 h at 4° C. […]

HT29 cells = assay: Scattering assay (InIB-induced); type: cell-based, human; conditions: InIB 1 nM 48 h, antibody 100 μg/ml or peptide 100 ng/ml
Procedure: Scattering of HT29 cells was determined after treatment with InIB alone or together with a control peptide or a CD44v6 peptide or antibody as indicated. The magnification used was ×20.
HT29 cells were seeded at a concentration of 3×10^5 cells/well in a 6-well plate. They were then incubated with InIB (1 nM) for 48 h at 37° C. For the blocking experiments, CD44 anti-v6 antibodies (Biwa; 100 μg/ml) or a CD44v6 peptide (100 ng/ml) were added before addition of InIB. Pictures were taken using a phase contrast microscope 48 h after induction.

Erk [4] = assay: InIB-induced Erk phosphorylation in HeLa and HT29 cells; type: cell-based, human; conditions: peptide 100 ng/ml 30 min before InIB 1 nM 5 min
Procedure: as §4, §2, §5

Substance: CD44v6 peptide having SEQ ID NO:1: CD44v6 14-mer peptide having SEQ ID NO: 1, used on rat ASs6 cells (KEKWFENEWQGKNP; listed as Rattus norvegicus)
- InIB-induced Erk phosphorylation (Erk [1]): abrogated
- InIB-induced c-Met phosphorylation (c-Met [2]): abrogated

Substance: KEQWFGNRWHEGYR (listed as Homo sapiens) [human CD44v6 14-mer peptide]
- InIB-induced activation of c-Met (c-Met [3]): completely abrogated
- entry of InIB-coated beads (HeLa cells): drastic decrease
- entry of InIB-coated beads blocked (HeLa cells): ~100%
- InIB-induced scattering (HT29 cells): blocked
- downstream signaling monitored by Erk activation (Erk [4]): inhibited
